In brackets after ≈: the same amount, converted by molar mass. Activity calls are given as the source filed them. The calls are words filed in the database; no cut-off is given here.
How the values were obtained:
Erythrocyte = test: Hemolytic activity in human RBC by spectrophotometry; format: ADME, cell-based
HepG2 = test: Cytotoxicity against human HepG2 cells assessed as reduction in cell viability by XTT assay; format: cell-based
[1] = Selectivity index, ratio of CC50 of human HepG2 cells to MIC of antifungal activity against Candida tropicalis ATCC 200956; format: toxicity
Candida tropicalis = test: Antifungal activity against Candida tropicalis ATCC 200956 by CLSI standard M27 broth microdilution method; format: functional
[2] = Selectivity index, ratio of HA50 to human RCB to MIC of antifungal activity against Candida tropicalis ATCC 200956; format: toxicity; conditions: human red blood cells (RCB)
Cryptococcus neoformans = test: Fungicidal activity against Cryptococcus neoformans ATCC 208821 assessed as loss of fungal growth by CLSI method; format: functional, organism-based
[Candida] auris [3] = Antifungal activity against Candida auris CBS 10913 by CLSI standard M27 broth microdilution method; format: functional; conditions: Candidozyma auris
Cryptococcus gattii = test: Fungicidal activity against Cryptococcus gattii ATCC 56990 assessed as loss of fungal growth by CLSI method; format: functional, organism-based; conditions: Cryptococcus bacillisporus
Candida duobushaemulonii = test: Antifungal activity against Candida duobushaemulonis CBS 7799 by CLSI standard M27 broth microdilution method; format: functional; conditions: Candidozyma duobushaemuli
Aspergillus fumigatus = test: Antifungal activity against Aspergillus fumigatus ATCC 16913 by CLSI standard M38 broth microdilution method; format: functional, organism-based
[4] = Antifungal activity against Candida pseudohaemulonis CBS 10004 by broth microdilution method; format: functional; conditions: Candidozyma pseudohaemuli
[Candida] auris [5] = Antifungal activity against Candida auris CBS 12766 by CLSI standard M27 broth microdilution method; format: functional; conditions: Candidozyma auris
Aspergillus niger = test: Antifungal activity against Aspergillus niger by CLSI standard M38 broth microdilution method; format: functional, organism-based

Row | Structure (SMILES) | Activity (Erythrocyte) [µg/mL] | CC50 (HepG2) [µg/mL] | selectivity ratio [1] | MIC (Candida tropicalis) [µg/mL] | selectivity ratio [2] | Activity (Cryptococcus neoformans) | MIC ([Candida] auris [3]) [µg/mL] | Activity (Cryptococcus gattii) | MIC (Candida duobushaemulonii) [µg/mL] | inhibition (Aspergillus fumigatus) | MIC [4] [µg/mL] | MIC ([Candida] auris [5]) [µg/mL] | inhibition (Aspergillus niger)
1 | C[C@H]1OC(c2ccc(Br)cc2O)=N[C@H]1C(=O)OCc1ccccc1 | > 128 | 62 (≈ 159 µM) | 62 | 0.06 (≈ 0.154 µM) | ≥ 128 | – | – | – | – | – | – | – | –
2 | C[C@H]1OC(c2ccc(Cl)cc2O)=N[C@H]1C(=O)OCc1ccccc1 | > 128 | 95 (≈ 275 µM) | ≥ 380 | ≤ 0.03 | ≥ 512 | Active | 0.06 (≈ 0.174 µM) | Active | 0.5 (≈ 1.45 µM) | Active | 0.25 (≈ 0.723 µM) | 2 (≈ 5.78 µM) | Active
3 | C[C@H]1OC(c2ccccc2O)=N[C@H]1C(=O)OCc1ccccc1 | > 128 | 102 (≈ 328 µM) | ≥ 26 | ≤ 0.03 | ≥ 32 | – | – | – | – | – | – | – | –
4 | COc1cccc(O)c1C1=N[C@@H](C(=O)OCc2ccccc2)[C@@H](C)O1 | > 128 | 101 (≈ 296 µM) | 6 | 0.12 (≈ 0.352 µM) | ≥ 8 | – | – | – | – | – | – | – | –
5 | C[C@H]1OC(c2ccc(N=[N+]=[N-])cc2O)=N[C@H]1C(=O)OCc1ccccc1 | > 128 | 100 (≈ 284 µM) | ≥ 100 | ≤ 0.03 | ≥ 128 | – | – | – | – | – | – | – | –
6 | CCNC(=O)C1N=C(c2cc(Cl)c3ccccc3c2O)O[C@H]1C (single isomer, unassigned) | > 128 | – | ≥ 128 | 0.06 (≈ 0.18 µM) | ≥ 128 | – | – | – | – | – | – | – | –
7 | C=CCOC(=O)C1N=C(c2cc(Cl)c3ccccc3c2O)O[C@H]1C (single isomer, unassigned) | > 128 | 11 (≈ 31.8 µM) | ≥ 11 | ≤ 0.03 | ≥ 128 | – | – | – | – | – | – | – | –
8 | C[C@@H]1OC(c2cc(Br)c3ccccc3c2O)=N[C@@H]1C(=O)OCc1ccccc1 (single isomer, unassigned) | > 128 | 9 (≈ 20.4 µM) | ≥ 18 | ≤ 0.03 | ≥ 256 | – | – | – | – | – | – | – | –
9 | C[C@@H]1OC(c2cc(Cl)c3ccccc3c2O)=NC1C(=O)Nc1ccccc1NC(=O)[C@@H]1N=C(c2cc(Cl)c3ccccc3c2O)O[C@@H]1C (single isomer, unassigned) | > 128 | 90 (≈ 132 µM) | ≥ 23 | ≤ 0.03 | ≥ 32 | – | – | – | – | – | – | – | –
10 | C[C@@H]1OC(c2cc(Cl)c3ccccc3c2O)=N[C@@H]1C(=O)OC[C@H]1COC(C)(C)O1 | > 128 | 7.2 (≈ 17.1 µM) | ≥ 1 | ≤ 0.03 | ≥ 16 | – | – | – | – | – | – | – | –
11 | CC[C@H](C)C[C@H](C)CCCCCCCCC(=O)N[C@H]1C[C@@H](O)[C@@H](NCCN)NC(=O)[C@@H]2[C@@H](O)CCN2C(=O)[C@H]([C@H](O)CCN)NC(=O)[C@H]([C@H](O)[C@@H](O)c2ccc(O)cc2)NC(=O)[C@@H]2C[C@@H](O)CN2C(=O)[C@H]([C@@H](C)O)NC1=O [CASPOFUNGIN] | – | 32 (≈ 29.3 µM) | 16 | ≤ 0.03 | ≥ 16 | – | 0.12 (≈ 0.11 µM) | – | 0.25 (≈ 0.229 µM) | – | 0.5 (≈ 0.457 µM) | 0.25 (≈ 0.229 µM) | –
12 | COc1ccc(O)c(C2=N[C@@H](C(=O)OCc3ccccc3)[C@@H](C)O2)c1 | > 128 | 100 (≈ 293 µM) | 25 | ≤ 0.03 | ≥ 32 | – | – | – | – | – | – | – | –
13 | C[C@@H]1OC(c2cc(Cl)c3ccccc3c2O)=N[C@@H]1C(=O)OCc1ccccc1 | > 128 | 15 (≈ 37.9 µM) | 8 | 0.06 (≈ 0.152 µM) | ≥ 64 | – | – | – | – | – | – | – | –
14 | COC(=O)C1N=C(c2cc(Cl)c3ccccc3c2O)O[C@H]1C (single isomer, unassigned) | > 128 | 11 (≈ 34.4 µM) | 1 | 0.25 (≈ 0.782 µM) | ≥ 16 | – | – | – | – | – | – | – | –
15 | C[C@H]1OC(c2ccc(I)cc2O)=N[C@H]1C(=O)OCc1ccccc1 | > 128 | 62 (≈ 142 µM) | ≥ 62 | ≤ 0.03 | ≥ 128 | – | – | – | – | – | – | – | –
16 | C[C@H]1OC(c2cc(Br)ccc2O)=N[C@H]1C(=O)OCc1ccccc1 | > 128 | 88 (≈ 226 µM) | ≥ 88 | ≤ 0.03 | ≥ 128 | – | – | – | – | – | – | – | –
17 | C#CCNC(=O)C1N=C(c2cc(Cl)c3ccccc3c2O)O[C@H]1C (single isomer, unassigned) | > 128 | 33 (≈ 96.3 µM) | ≥ 132 | ≤ 0.03 | ≥ 512 | – | – | – | – | – | – | – | –
18 | C[C@H]1OC(c2cc(I)ccc2O)=N[C@H]1C(=O)OCc1ccccc1 | > 128 | 64 (≈ 146 µM) | ≥ 64 | ≤ 0.03 | ≥ 128 | – | – | – | – | – | – | – | –
19 | C[C@@H](O)[C@H](NC(=O)c1ccc2ccccc2c1O)C(=O)OCc1ccccc1 | > 128 | 40 (≈ 105 µM) | 3 | 8 (≈ 21.1 µM) | > 8 | – | – | – | – | – | – | – | –
20 | CCNC(=O)[C@H]1N=C(c2ccc3ccccc3c2O)O[C@H]1C | > 128 | > 128 | ≥ 128 | ≤ 0.03 | ≥ 128 | – | – | – | – | – | – | – | –
21 | C[C@H]1OC(c2cc(F)ccc2O)=N[C@H]1C(=O)OCc1ccccc1 | > 128 | > 128 | ≥ 128 | ≤ 0.03 | ≥ 128 | – | – | – | – | – | – | – | –
22 | C[C@@H]1OC(c2cc(Cl)c3ccccc3c2O)=NC1C(=O)OCc1ccoc1 (single isomer, unassigned) | > 128 | 6 (≈ 15.6 µM) | ≥ 2 | ≤ 0.03 | ≥ 32 | – | – | – | – | – | – | – | –
23 | COC(=O)[C@H]1N=C(c2ccc3ccccc3c2O)O[C@H]1C | > 128 | 84 (≈ 294 µM) | 5 | 0.06 (≈ 0.21 µM) | ≥ 8 | – | – | – | – | – | – | – | –
24 | C[C@@H]1OC(c2ccc3ccccc3c2O)=N[C@@H]1C(=O)OCc1ccccc1 | > 128 | 88 (≈ 243 µM) | ≥ 176 | ≤ 0.03 | ≥ 256 | – | – | – | – | – | – | – | –
25 | C[C@@H]1OC(c2cc(Cl)c3ccccc3c2O)=N[C@@H]1C(=O)OC/C=C/c1ccccc1 | > 128 | 10 (≈ 23.7 µM) | ≥ 1 | ≤ 0.03 | ≥ 8 | – | – | – | – | – | – | – | –
26 | OC(Cn1cncn1)(Cn1cncn1)c1ccc(F)cc1F [FLUCONAZOLE] | > 128 | > 128 | ≥ 1 | 1 (≈ 3.27 µM) | ≥ 1 | – | 2 (≈ 6.53 µM) | – | > 64 | – | 16 (≈ 52.2 µM) | > 0.064 | –
27 | C[C@@H]1[C@H](O)[C@@H](C)/C=C/C=C/C=C/C=C/C=C/C=C/C=C/[C@H](O[C@@H]2O[C@H](C)[C@@H](O)[C@H](N)[C@@H]2O)C[C@@H]2O[C@](O)(C[C@@H](O)C[C@@H](O)[C@H](O)CC[C@@H](O)C[C@@H](O)CC(=O)O[C@H]1C)C[C@H](O)[C@H]2C(=O)O [AMPHOTERICIN B] | 17 | 4 (≈ 4.33 µM) | ≥ 16 | ≤ 0.03 | ≥ 68 | – | 0.5 (≈ 0.541 µM) | – | 4 (≈ 4.33 µM) | – | 8 (≈ 8.66 µM) | 2 (≈ 2.16 µM) | –
28 | C[C@@H]1OC(c2cc(Cl)c3ccccc3c2O)=NC1C(=O)Nc1ccc2ncsc2c1 (single isomer, unassigned) | > 128 | 16 (≈ 36.5 µM) | ≥ 133 | ≤ 0.03 | ≥ 1070 | Active | 0.06 (≈ 0.137 µM) | Active | 0.06 (≈ 0.137 µM) | Active | 0.03 (≈ 0.0685 µM) | 2 (≈ 4.57 µM) | Active

Reference: ChEMBL document CHEMBL4725493, “Novel 2-Aryloxazoline Compounds Exhibit an Inhibitory Effect on Candida spp., Including Antifungal-Resistant Isolates” (ACS Med Chem Lett, 2020)
